Assay results published in patent US20130143830A1, “AGENTS FOR COMBATING AND REDUCING THE IRRITATING ACTION OF SURFACTANTS IN COMPOSITIONS TO BE APPLIED TO THE SKIN FOR CARE OR CLEANSING OF THE FACE AND BODY” (GIULIANI S.P.A, priority 2008, published 2013).

Columns and labels:
[1] = test system: EPISKIN model of reconstructed human epidermis; test: MTT cell viability test on EPISKIN model (in vitro skin irritation); type: cell-based
Experimental: 2.1.1 EPISKIN™ model (EPISKIN-SM™), EPISKIN SNC Lyon, France, is a model of reconstructed human epidermis. The human keratinocytes are seeded on a dermal substitute consisting of a collagen type I matrix coated with type IV collagen. A highly differentiated and stratified epidermis model is obtained after a 13-day culture period comprising the basal, suprabasal, spinous and granular layers and a functional stratum corneum (Tinois et al., 1984). The model is used in the skin irritation applying the substances being examined at topical level to the epidermis and subsequently assessing cell viability.
10 μl of the solutions were applied to the surface of the epidermis for 15 minutes, followed by 42 hours of recovery.
VitroScreen is implementing a quality system in compliance with the GLP regulations (2004/9/CE and 2004/10/CE) in preparation of the GLP Audit and relative certification. The methods utilized in the study were entered in the list of VitroScreen methods. Following a validation study coordinated by ECVAM the Episkin test system was validated by the ESAC (27/04/07); this uses a model of epidermis reconstructed in vitro—EPISKIN—to assess skin irritation produced by chemical substances for hazard identification and R38 classification: cell viability is quantified after 15 min of exposure +42 h of recovery. Quantification of IL-1α with the ELISA method is part of the validated method for skin irritation as it allows the substances to be distinguished even when there is no decrease in cell viability.
The MTT test is considered an international standard for quantification of cytotoxicity (ISO 10993-5). The method allows quantification of the cytotoxic effect produced by the product through measuring cell viability. Cytotoxicity is quantified by measuring the decrease in cell viability compared to an untreated negative control. It is based on the metabolizing reaction which takes place between the salt of tetrazolium (MTT) and the mitochondrial enzymes (succinate dehydrogenase) after contact with the product for the various treatment times: only the viable cell can transform the salt of tetrazolium into the insoluble derivative (Formazan), reaction which is highlighted by the formation of a purple color at the bottom of the insert.
Metabolization of the salt takes place at the level of the basal cells of the epithelium in the area above the polycarbonate support.
The purple colored derivative is extracted in isopropanol and quantified spectrophotometrically at 570 nm.
At the end of treatment and post-incubation with the substances being examined, the EPISKIN models are transferred to 12 well plates, filled with 2 ml of MTT (used at the concentration of 0.3 mg/ml in the assay medium) and the test is conducted for 3 hours at 37° C., 5% CO2, 90% humidity.
The formazan is extracted from the tissue in Eppendorf tubes with 500 μl of acidified isopropanol (0.04 N HCL final concentration) with incubation in the dark under stirring for 4 hours at room temperature.
10 μl of the substances being examined, of the positive (SDS 5%) and negative (sterile water) control are applied to the surface of the epidermis.
The treated tissues are maintained at room temperature for 15 minutes (±0.5 minutes).
At the end of incubation the tissues are washed 2-3 times with PBS and placed in an incubator with fresh maintenance medium for 42 hours of recovery.
The TEER is measured post-treatment and the MTT test is then conducted for 3 hours at 37° C. and formazan is subsequently extracted for 4 hours as described in the methods.
At the end of the test 2×200 μl of sample for each well are transferred to 96 well plates and read spectrophotometrically at 570 nm.
The optical densities are recorded directly by the Microplate autoreader (TECAN INFINITE M-200), exported to Excel files and the cell viability % is calculated compared to the optical density of the negative control. […]

[2] = pH of the prepared solutions; type: physicochemical; settings: positive control solution
Experimental: The solutions are prepared and the pH is measured.

Compound	irritation classification by predictive model ([1]; MAG at 2%)	cytotoxic effects ([1]; MAG at 2%, 15 min exposure + 42 h recovery)	irritation classification by predictive model ([1]; MAG at 2%, listed as Mono-Ammonium Glycyrrhizate)	irritation classification by predictive model ([1]; MAG at 5%)	loss of viability ([1]; MAG at 5%, 15 min exposure + 42 h recovery) [%]	irritation classification by predictive model ([1]; MAG at 5%, listed as Mono-Ammonium Glycyrrhizate)	reduction in viability ([1]; SDS 5%, 10 μl, 15 min exposure + 42 h recovery, vs negative control) [%]	irritation classification by predictive model ([1]; solution as tested, 15 min exposure + 42 h recovery, cut-off 50% viability, sulfate)	pH [2]
CC1(C)[C@@H](O[C@H]2O[C@H](C(=O)O)[C@@H](O)[C@H](O)[C@H]2O[C@@H]2O[C@H](C(=O)O)[C@@H](O)[C@H](O)[C@H]2O)CC[C@]2(C)[C@H]3C(=O)C=C4[C@@H]5C[C@@](C)(C(=O)O)CC[C@]5(C)CC[C@@]4(C)[C@]3(C)CC[C@@H]12.N [MAG, monoammonium glycyrrhizinate]	non-irritant	no cytotoxic effects	NON IRRITANT (NI)	non-irritant	20	NON IRRITANT (NI)	–	–	–
CCCCCCCCCCCCOS(=O)(=O)[O-].[Na+] [SDS 5%, sodium dodecyl sulfate, reference compound]	–	–	–	–	–	–	80	R38 irritant	5.80
